Test system: HBV in HepAD38 cells
Assay: HepAD38 cell antiviral assay (reduction of viral product accumulation)
Assay type: cell-based
Details: Hepatitis B virus, concentration reducing viral product accumulation by 50% relative to no drug controls
Protocol: Methods: HepAD38 cells are maintained as previously reported (Ladner et al, Antimicrob. Agents Chemother. 1997, […], 1715). Briefly, cells are passaged upon attaining confluency in DMEM/F12 media in the presence of 10% FBS, Penn/Strep, 250 μg/mL G418, and 1 ug/ml tetracycline. Novel compounds are screened by first washing cells three times with PBS to remove tetracycline, and plating in 96 well plates at 35,000 cells/well. Compounds dissolved in DMSO are then diluted 1:200 into wells containing cells. Five days after compound addition, material is harvested for analysis. For an extended 8 day analysis, cells are plated and treated as described above, but media and compound are refreshed on d2 and d5 post initial treatment.
On harvest day, virion DNA is obtained by lysing with Sidestep Lysis and Stabilization Buffer and then quantified via quantitative real time PCR. Commercially available ELISA kits are used to quantitate the viral proteins HBsAg (Alpco) or HBeAg (US Biological) by following the manufacturer's recommended protocol after diluting samples to match the linear range of their respective assays. Irrespective of readout, compound concentrations that reduce viral product accumulation in the cell lysates or supernatants by 50% relative to no drug controls (EC50) are reported; EC50 ranges are as follows: A<1 μM; B 1-10 μM; C>10 μM.

SMILES	EC50 [µM]
O=S(=O)(c1cc(C(Nc2cc(F)c(F)c(F)c2)C(F)(F)F)ccc1Cl)N1C2CC[C@@H]1CC(O)C2 (stereo partly drawn) [Example 23]	> 10
O=S(=O)(c1cc(-c2ncc(-c3ccc(C4CC4)c(C(F)(F)F)c3)[nH]2)ccc1Cl)N1C2CC[C@@H]1C[C@H](O)C2 [Example 15]	1 to 10
O=C1CC2CCC(C1)N2S(=O)(=O)c1cc(C(=O)Nc2cc(F)c(F)c(F)c2)ccc1Cl [Example 16]	< 1
C[C@H](N)C(=O)O[C@@H]1CC2CC[C@H](C1)N2S(=O)(=O)c1cc(-c2ncc(-c3ccc(Br)c(F)c3)[nH]2)ccc1Cl [Example 4]	< 1
O=S(=O)(c1cc(-c2ncc(-c3ccc(Br)c(F)c3)[nH]2)ccc1Cl)N1CCC(O)C2(CC2)C1 (stereo not drawn) [Example 5]	< 1
O=C(Nc1cc(F)c(F)c(F)c1)c1ccc(Cl)c(S(=O)(=O)N2C3CCC2CC(O)(CO)C3)c1 (stereo not drawn) [Example 18]	< 1
C[C@H](NC(=O)OC(C)(C)C)C(=O)O[C@@H]1CC2CC[C@H](C1)N2S(=O)(=O)c1cc(-c2ncc(-c3ccc(Br)c(F)c3)[nH]2)ccc1Cl [Example 3]	< 1
O=S(=O)(c1cc(-c2ncc(-c3ccc(Cl)c(C4CC4)c3)[nH]2)ccc1Cl)N1C2CC[C@@H]1C[C@H](O)C2 [Example 11]	< 1
O=S(=O)(c1cc(-c2ncc(-c3ccc(Br)c(F)c3)[nH]2)ccc1Cl)N1C2CC[C@@H]1C[C@H](O)C2 [Example 1]	< 1
O=S(=O)(c1cc(C2(Nc3cc(F)c(F)c(F)c3)COC2)ccc1Cl)N1C2CC[C@@H]1CC(O)C2 (stereo partly drawn) [Example 24]	> 10
O=S(=O)(c1cc(-c2ncc(-c3ccc(Cl)c(C(F)(F)F)c3)[nH]2)ccc1Cl)N1C2CC[C@@H]1C[C@H](O)C2 [Example 14]	< 1
O=S(=O)(c1cc(-c2ncc(-c3ccc(C(F)(F)F)c(C4CC4)c3)[nH]2)ccc1Cl)N1C2CC[C@@H]1C[C@H](O)C2 [Example 12]	< 1
O=C(Nc1ccc(Br)c(F)c1)c1ccc(Cl)c(S(=O)(=O)N2C3CC[C@@H]2C[C@H](O)C3)c1 [Example 8]	1 to 10
O=S(=O)(c1cc(-c2ncc(-c3ccc(Br)c(F)c3)[nH]2)ccc1Cl)N1CC2(COC2)C1 [Example 22]	1 to 10
O=C(Nc1cc(F)c(F)c(F)c1)c1ccc(Cl)c(S(=O)(=O)N2CCC(O)C3(CC3)C2)c1 (stereo not drawn) [Example 9]	< 1
O=S(=O)(c1cc(-c2ncc(-c3ccc(Br)c(F)c3)[nH]2)ccc1Cl)N1CCC2(COC2)C1 [Example 21]	1 to 10
O=C(Nc1cc(F)c(F)c(F)c1)c1ccc(Cl)c(S(=O)(=O)N2C3CCC2CC(CO)C3)c1 (stereo not drawn) [Example 19]	< 1
O=S(=O)(c1cc(-c2ncc(-c3ccc(C(F)(F)F)c(Cl)c3)[nH]2)ccc1Cl)N1C2CC[C@@H]1C[C@H](O)C2 [Example 13]	< 1
O=S(=O)(c1cc(-c2ncc(-c3ccc(Br)c(F)c3)[nH]2)ccc1Cl)N1C2CC[C@@H]1C[C@@H](O)C2 [Example 2]	< 1
C=C1CC2CCC(C1)N2S(=O)(=O)c1cc(C(=O)Nc2cc(F)c(F)c(F)c2)ccc1Cl [Example 17]	< 1
O=C(Nc1cc(F)c(F)c(F)c1)c1ccc(Cl)c(S(=O)(=O)N2C3CC[C@@H]2C[C@H](O)C3)c1 [Example 6]	< 1
O=C(Nc1cc(F)c(F)c(F)c1)c1ccc(Cl)c(S(=O)(=O)N2CCC3(CC2)COC3)c1 [Example 20]	1 to 10
O=S(=O)(c1cc(-c2ncc(-c3ccc(C4CC4)c(Cl)c3)[nH]2)ccc1Cl)N1C2CC[C@@H]1C[C@H](O)C2 [Example 10]	< 1
O=C(Nc1cc(F)c(F)c(F)c1)c1ccc(Cl)c(S(=O)(=O)N2C3CC[C@@H]2C[C@@H](O)C3)c1 [Example 7]	< 1
